Laboratory results: ChEMBL document CHEMBL4649983, “Selective targeting of the BRG/PB1 bromodomains impairs embryonic and trophoblast stem cell maintenance” (Sci Adv, 2015)
Several values for one entry are separate records, joined by “and”; a condition that tells them apart may be missing. Equal entries are not always repeated.

Columns and labels:
[1] = molecular target: Bromodomain and WD repeat-containing protein 1 (Homo sapiens) (UniProt Q9NSI6); settings: Compound concentration 10.0 uM, Protein concentration 2.0 uM
[2] = molecular target: Histone acetyltransferase KAT2B (Homo sapiens) (UniProt Q92831); settings: Compound concentration 10.0 uM, Protein concentration 2.0 uM
[3] = molecular target: Histone acetyltransferase p300 (Homo sapiens) (UniProt Q09472); settings: Compound concentration 10.0 uM, Protein concentration 2.0 uM
[4] = molecular target: CREB-binding protein (Homo sapiens) (UniProt Q92793); settings: Compound concentration 10.0 uM, Protein concentration 2.0 uM
[5] = molecular target: Transcription intermediary factor 1-beta (Homo sapiens) (UniProt Q13263); settings: Compound concentration 10.0 uM, Protein concentration 2.0 uM
[6] = molecular target: Chromatin remodeling regulator CECR2 (Homo sapiens) (UniProt Q9BXF3); settings: Compound concentration 10.0 uM, Protein concentration 2.0 uM
[7] = molecular target: Histone acetyltransferase KAT2A (Homo sapiens) (UniProt Q92830); settings: Compound concentration 10.0 uM, Protein concentration 2.0 uM
[8] = molecular target: Peregrin (Homo sapiens) (UniProt P55201); settings: Compound concentration 10.0 uM, Protein concentration 2.0 uM
[9] = molecular target: Bromodomain-containing protein 9 (Homo sapiens) (UniProt Q9H8M2); settings: Compound concentration 10.0 uM, Protein concentration 2.0 uM
[10] = molecular target: Bromodomain-containing protein 3 (Homo sapiens) (UniProt Q15059); test: Thermal Shift Assay. Domain start/stop: P24-E144; settings: Compound concentration 10.0 uM, Protein concentration 2.0 uM
[11] = molecular target: Protein polybromo-1 (Homo sapiens) (UniProt Q86U86); settings: Compound concentration 10.0 uM, Protein concentration 2.0 uM
Protein polybromo-1 (Homo sapiens), sequence (Q86U86 whole entry, the tested form may be a part): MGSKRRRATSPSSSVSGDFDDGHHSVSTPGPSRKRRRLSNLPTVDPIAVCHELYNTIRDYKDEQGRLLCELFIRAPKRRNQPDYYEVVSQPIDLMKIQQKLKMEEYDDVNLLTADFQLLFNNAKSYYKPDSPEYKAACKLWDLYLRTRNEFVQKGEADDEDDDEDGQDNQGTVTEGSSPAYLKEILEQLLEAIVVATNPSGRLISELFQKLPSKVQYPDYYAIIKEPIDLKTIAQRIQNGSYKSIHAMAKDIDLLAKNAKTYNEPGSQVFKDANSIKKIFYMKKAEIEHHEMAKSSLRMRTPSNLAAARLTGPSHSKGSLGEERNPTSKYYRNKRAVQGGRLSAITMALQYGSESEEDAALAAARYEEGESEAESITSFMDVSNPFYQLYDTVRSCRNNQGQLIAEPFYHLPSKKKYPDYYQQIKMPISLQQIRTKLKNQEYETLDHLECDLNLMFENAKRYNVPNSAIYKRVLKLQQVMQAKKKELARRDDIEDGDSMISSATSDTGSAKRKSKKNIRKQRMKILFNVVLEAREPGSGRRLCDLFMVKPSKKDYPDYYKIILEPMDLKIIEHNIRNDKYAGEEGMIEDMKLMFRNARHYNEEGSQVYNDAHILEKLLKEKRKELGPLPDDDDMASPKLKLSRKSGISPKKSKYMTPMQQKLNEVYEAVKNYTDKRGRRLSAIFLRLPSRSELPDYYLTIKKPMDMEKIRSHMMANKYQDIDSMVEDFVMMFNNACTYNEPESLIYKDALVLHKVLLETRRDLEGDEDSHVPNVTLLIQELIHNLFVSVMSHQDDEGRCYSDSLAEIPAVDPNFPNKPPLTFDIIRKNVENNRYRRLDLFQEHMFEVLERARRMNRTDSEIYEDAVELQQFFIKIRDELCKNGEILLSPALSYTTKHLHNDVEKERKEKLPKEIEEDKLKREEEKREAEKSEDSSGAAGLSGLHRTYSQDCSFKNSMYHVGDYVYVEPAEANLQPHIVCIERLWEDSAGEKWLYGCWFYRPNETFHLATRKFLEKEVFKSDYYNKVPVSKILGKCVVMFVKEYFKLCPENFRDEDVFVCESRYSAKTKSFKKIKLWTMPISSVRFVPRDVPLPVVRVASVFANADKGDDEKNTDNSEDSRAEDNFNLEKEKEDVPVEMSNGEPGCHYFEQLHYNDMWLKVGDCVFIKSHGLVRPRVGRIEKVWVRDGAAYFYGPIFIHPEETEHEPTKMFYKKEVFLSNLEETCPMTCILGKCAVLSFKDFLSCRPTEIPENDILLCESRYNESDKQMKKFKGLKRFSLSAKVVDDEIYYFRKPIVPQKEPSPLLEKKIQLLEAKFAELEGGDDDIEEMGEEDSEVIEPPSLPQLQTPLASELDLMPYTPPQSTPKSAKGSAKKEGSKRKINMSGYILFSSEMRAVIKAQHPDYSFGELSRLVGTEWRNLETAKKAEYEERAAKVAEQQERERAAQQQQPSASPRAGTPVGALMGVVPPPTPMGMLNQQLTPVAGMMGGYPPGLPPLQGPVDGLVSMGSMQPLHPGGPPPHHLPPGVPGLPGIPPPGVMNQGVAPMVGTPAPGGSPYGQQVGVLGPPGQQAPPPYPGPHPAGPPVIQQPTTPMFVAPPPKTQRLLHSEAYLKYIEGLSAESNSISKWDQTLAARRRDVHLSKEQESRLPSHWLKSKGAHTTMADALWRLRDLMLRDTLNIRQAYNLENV

[12] = molecular target: Protein polybromo-1 (Homo sapiens) (UniProt Q86U86); settings: Compound concentration 10.0 uM, Protein concentration 2.0 uM; remark: listed apart in the source
[13] = molecular target: Histone acetyltransferase p300 (Homo sapiens) (UniProt Q09472); test: Thermal Shift Assay. Domain start/stop: A1040-S1171; settings: Compound concentration 10.0 uM, Protein concentration 2.0 uM
[14] = molecular target: Nuclear body protein SP140 (Homo sapiens) (UniProt Q13342); settings: Compound concentration 10.0 uM, Protein concentration 2.0 uM
[15] = molecular target: Transcription initiation factor TFIID subunit 1 (Homo sapiens) (UniProt P21675); settings: Compound concentration 10.0 uM, Protein concentration 2.0 uM
[16] = molecular target: Bromodomain testis-specific protein (Homo sapiens) (UniProt Q58F21); settings: Compound concentration 10.0 uM, Protein concentration 2.0 uM
[17] = molecular target: Bromodomain and PHD finger-containing protein 3 (Homo sapiens) (UniProt Q9ULD4); settings: Compound concentration 10.0 uM, Protein concentration 2.0 uM
[18] = molecular target: Protein polybromo-1 (Homo sapiens) (UniProt Q86U86); settings: Protein concentration 2.0 uM
[19] = molecular target: Transcription intermediary factor 1-alpha (Homo sapiens) (UniProt O15164); settings: Compound concentration 10.0 uM, Protein concentration 2.0 uM
[20] = molecular target: Bromodomain-containing protein 4 (Homo sapiens) (UniProt O60885); settings: Compound concentration 10.0 uM, Protein concentration 2.0 uM
[21] = molecular target: ATPase family AAA domain-containing protein 2B (Homo sapiens) (UniProt Q9ULI0); settings: Compound concentration 10.0 uM, Protein concentration 2.0 uM
[22] = molecular target: Nucleosome-remodeling factor subunit BPTF (Homo sapiens) (UniProt Q12830); settings: Compound concentration 10.0 uM, Protein concentration 2.0 uM
[23] = molecular target: Bromodomain-containing protein 1 (Homo sapiens) (UniProt O95696); settings: Compound concentration 10.0 uM, Protein concentration 2.0 uM
[24] = molecular target: SWI/SNF-related matrix-associated actin-dependent regulator of chromatin subfamily A member 2 (Homo sapiens) (UniProt P51531); test: Thermal Shift Assay. Domain start/stop: A1373-E1493; settings: Compound concentration 10.0 uM, Protein concentration 2.0 uM
SWI/SNF-related matrix-associated actin-dependent regulator of chromatin subfamily A member 2 (Homo sapiens), sequence (P51531 whole entry): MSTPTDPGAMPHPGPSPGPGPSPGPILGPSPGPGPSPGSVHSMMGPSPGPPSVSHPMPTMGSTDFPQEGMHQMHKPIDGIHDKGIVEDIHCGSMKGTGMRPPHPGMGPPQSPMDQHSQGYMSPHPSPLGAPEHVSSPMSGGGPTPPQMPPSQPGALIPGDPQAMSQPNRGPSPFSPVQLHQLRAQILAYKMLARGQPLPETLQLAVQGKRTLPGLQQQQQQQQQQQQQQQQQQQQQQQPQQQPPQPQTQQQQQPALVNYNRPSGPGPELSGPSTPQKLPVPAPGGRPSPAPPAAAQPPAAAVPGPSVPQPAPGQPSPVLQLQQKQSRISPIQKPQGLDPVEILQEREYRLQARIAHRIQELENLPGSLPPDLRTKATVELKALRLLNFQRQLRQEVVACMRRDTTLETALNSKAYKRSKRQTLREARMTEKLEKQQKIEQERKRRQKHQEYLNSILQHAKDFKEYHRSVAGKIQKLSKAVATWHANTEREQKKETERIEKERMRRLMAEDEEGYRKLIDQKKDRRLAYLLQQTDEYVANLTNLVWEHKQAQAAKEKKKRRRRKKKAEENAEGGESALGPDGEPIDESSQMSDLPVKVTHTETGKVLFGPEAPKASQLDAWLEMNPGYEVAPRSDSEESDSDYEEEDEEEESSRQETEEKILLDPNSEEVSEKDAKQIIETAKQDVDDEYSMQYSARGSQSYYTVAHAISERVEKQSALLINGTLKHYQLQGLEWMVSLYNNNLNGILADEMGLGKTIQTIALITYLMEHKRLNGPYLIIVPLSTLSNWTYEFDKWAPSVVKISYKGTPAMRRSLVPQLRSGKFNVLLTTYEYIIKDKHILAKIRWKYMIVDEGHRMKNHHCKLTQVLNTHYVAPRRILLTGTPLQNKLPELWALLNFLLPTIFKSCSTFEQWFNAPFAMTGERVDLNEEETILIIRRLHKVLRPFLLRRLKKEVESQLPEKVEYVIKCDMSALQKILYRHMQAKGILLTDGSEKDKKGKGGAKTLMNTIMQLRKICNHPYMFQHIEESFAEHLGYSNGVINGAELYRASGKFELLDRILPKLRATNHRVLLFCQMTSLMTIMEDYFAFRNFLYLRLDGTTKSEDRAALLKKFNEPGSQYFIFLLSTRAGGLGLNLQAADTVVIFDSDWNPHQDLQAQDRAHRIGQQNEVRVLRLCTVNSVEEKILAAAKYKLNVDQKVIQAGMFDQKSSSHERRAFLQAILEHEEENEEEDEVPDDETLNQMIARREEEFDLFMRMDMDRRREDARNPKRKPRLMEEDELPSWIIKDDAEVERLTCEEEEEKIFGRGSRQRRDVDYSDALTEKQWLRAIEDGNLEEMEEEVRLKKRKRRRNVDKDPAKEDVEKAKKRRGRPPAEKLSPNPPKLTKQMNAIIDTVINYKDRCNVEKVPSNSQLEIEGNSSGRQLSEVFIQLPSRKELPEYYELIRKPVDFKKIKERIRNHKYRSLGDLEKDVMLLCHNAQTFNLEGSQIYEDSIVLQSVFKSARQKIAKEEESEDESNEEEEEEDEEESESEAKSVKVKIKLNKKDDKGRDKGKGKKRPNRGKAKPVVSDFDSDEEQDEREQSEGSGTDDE

[25] = molecular target: PH-interacting protein (Homo sapiens) (UniProt Q8WWQ0); settings: Compound concentration 20.0 uM, Protein concentration 25.0 uM
Description: Alphascreen assay. Domain start/stop: D1302-R1434

[26] = molecular target: Tripartite motif-containing protein 66 (Homo sapiens) (UniProt O15016); test: Thermal Shift Assay. Domain start/stop: M1091-S1218; settings: Compound concentration 10.0 uM, Protein concentration 2.0 uM
[27] = molecular target: Bromodomain and WD repeat-containing protein 3 (Homo sapiens) (UniProt Q6RI45); settings: Compound concentration 10.0 uM, Protein concentration 2.0 uM
[28] = molecular target: Protein polybromo-1 (Homo sapiens) (UniProt Q86U86); settings: Compound concentration 10.0 uM, Protein concentration 2.0 uM; remark: listed apart in the source
[29] = molecular target: Bromodomain adjacent to zinc finger domain protein 2B (Homo sapiens) (UniProt Q9UIF8); settings: Compound concentration 10.0 uM, Protein concentration 2.0 uM
[30] = molecular target: Bromodomain adjacent to zinc finger domain protein 1A (Homo sapiens) (UniProt Q9NRL2); settings: Compound concentration 10.0 uM, Protein concentration 2.0 uM
[31] = molecular target: Nuclear body protein SP140-like protein (Homo sapiens) (UniProt Q9H930); settings: Compound concentration 10.0 uM, Protein concentration 2.0 uM
[32] = molecular target: Bromodomain testis-specific protein (Homo sapiens) (UniProt Q58F21); settings: Compound concentration 10.0 uM, Protein concentration 2.0 uM; remark: listed apart in the source
[33] = molecular target: Protein polybromo-1 (Homo sapiens) (UniProt Q86U86); settings: Protein concentration 2.0 uM; remark: listed apart in the source
[34] = molecular target: ATPase family AAA domain-containing protein 2 (Homo sapiens) (UniProt Q6PL18); settings: Compound concentration 10.0 uM, Protein concentration 2.0 uM
[35] = molecular target: Histone-lysine N-methyltransferase ASH1L (Homo sapiens) (UniProt Q9NR48); settings: Compound concentration 10.0 uM, Protein concentration 2.0 uM
[36] = molecular target: Bromodomain-containing protein 4 (Homo sapiens) (UniProt O60885); settings: Compound concentration 10.0 uM, Protein concentration 2.0 uM; remark: listed apart in the source
[37] = molecular target: Bromodomain-containing protein 2 (Homo sapiens) (UniProt P25440); settings: Compound concentration 10.0 uM, Protein concentration 2.0 uM
[38] = molecular target: Protein polybromo-1 (Homo sapiens) (UniProt Q86U86); test: Thermal Shift Assay. Domain start/stop: H23-D159; settings: Compound concentration 10.0 uM, Protein concentration 2.0 uM
[39] = molecular target: Bromodomain-containing protein 2 (Homo sapiens) (UniProt P25440); settings: Compound concentration 10.0 uM, Protein concentration 2.0 uM; remark: listed apart in the source
[40] = molecular target: Transcription initiation factor TFIID subunit 1-like (Homo sapiens) (UniProt Q8IZX4); settings: Compound concentration 10.0 uM, Protein concentration 2.0 uM
[41] = molecular target: SWI/SNF-related matrix-associated actin-dependent regulator of chromatin subfamily A member 2 (Homo sapiens) (UniProt P51531); settings: Compound concentration 10.0 uM, Protein concentration 2.0 uM
[42] = molecular target: Transcription intermediary factor 1-alpha (Homo sapiens) (UniProt O15164); settings: Compound concentration 10.0 uM, Protein concentration 2.0 uM; remark: listed apart in the source
[43] = molecular target: Transcription initiation factor TFIID subunit 1 (Homo sapiens) (UniProt P21675); settings: Compound concentration 10.0 uM, Protein concentration 2.0 uM; remark: listed apart in the source
[44] = molecular target: Bromodomain-containing protein 3 (Homo sapiens) (UniProt Q15059); settings: Compound concentration 10.0 uM, Protein concentration 2.0 uM
[45] = molecular target: Protein polybromo-1 (Homo sapiens) (UniProt Q86U86); test: Thermal Shift Assay. Domain start/stop: R487-D598; settings: Compound concentration 10.0 uM, Protein concentration 2.0 uM
[46] = molecular target: SWI/SNF-related matrix-associated actin-dependent regulator of chromatin subfamily A member 4 (Homo sapiens) (UniProt P51532); settings: Compound concentration 10.0 uM, Protein concentration 2.0 uM
SWI/SNF-related matrix-associated actin-dependent regulator of chromatin subfamily A member 4 (Homo sapiens), sequence (P51532 whole entry): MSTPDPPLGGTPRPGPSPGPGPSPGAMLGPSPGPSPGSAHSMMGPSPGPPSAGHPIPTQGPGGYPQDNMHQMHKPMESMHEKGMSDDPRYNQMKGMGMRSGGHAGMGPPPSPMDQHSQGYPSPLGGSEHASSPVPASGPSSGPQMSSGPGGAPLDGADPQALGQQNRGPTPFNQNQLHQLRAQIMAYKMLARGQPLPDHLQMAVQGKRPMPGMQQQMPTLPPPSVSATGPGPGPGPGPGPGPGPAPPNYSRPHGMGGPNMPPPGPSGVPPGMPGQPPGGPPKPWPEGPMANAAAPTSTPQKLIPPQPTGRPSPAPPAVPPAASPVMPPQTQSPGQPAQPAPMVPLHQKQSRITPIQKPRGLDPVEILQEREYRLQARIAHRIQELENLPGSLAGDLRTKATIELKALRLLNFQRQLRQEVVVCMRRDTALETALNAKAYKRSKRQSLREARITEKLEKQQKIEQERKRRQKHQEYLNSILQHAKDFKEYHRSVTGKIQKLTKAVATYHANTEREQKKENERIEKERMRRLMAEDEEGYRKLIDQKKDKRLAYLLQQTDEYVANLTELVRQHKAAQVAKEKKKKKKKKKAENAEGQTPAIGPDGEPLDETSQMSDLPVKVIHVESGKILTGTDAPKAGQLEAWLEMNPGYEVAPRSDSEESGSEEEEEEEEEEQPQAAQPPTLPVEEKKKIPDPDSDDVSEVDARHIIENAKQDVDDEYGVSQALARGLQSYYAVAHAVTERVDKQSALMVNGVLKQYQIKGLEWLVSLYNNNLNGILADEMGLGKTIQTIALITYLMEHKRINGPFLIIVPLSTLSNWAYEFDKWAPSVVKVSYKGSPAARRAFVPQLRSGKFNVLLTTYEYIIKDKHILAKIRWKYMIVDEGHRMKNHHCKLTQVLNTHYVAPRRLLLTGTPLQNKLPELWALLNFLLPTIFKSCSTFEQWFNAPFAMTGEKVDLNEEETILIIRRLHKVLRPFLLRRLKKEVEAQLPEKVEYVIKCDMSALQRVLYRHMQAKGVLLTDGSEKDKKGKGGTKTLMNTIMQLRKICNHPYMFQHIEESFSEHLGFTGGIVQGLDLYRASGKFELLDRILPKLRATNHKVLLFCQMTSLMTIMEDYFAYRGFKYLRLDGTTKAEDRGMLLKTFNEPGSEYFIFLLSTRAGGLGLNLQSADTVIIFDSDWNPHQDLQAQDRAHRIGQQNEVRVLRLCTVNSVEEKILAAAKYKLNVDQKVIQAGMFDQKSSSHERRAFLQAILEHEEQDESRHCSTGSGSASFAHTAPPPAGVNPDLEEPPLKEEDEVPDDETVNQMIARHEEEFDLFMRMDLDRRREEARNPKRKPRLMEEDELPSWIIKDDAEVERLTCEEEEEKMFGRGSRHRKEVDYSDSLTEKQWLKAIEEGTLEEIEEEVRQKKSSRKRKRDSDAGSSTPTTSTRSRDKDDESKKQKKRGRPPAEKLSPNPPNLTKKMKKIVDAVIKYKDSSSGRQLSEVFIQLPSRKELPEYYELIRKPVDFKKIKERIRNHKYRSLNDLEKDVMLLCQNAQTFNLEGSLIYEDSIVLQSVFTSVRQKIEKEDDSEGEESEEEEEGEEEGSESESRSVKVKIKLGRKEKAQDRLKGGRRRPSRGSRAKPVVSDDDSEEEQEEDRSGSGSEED

[47] = molecular target: Peregrin (Homo sapiens) (UniProt P55201); settings: Compound concentration 10.0 uM, Protein concentration 2.0 uM; remark: listed apart in the source
[48] = molecular target: PH-interacting protein (Homo sapiens) (UniProt Q8WWQ0); settings: Compound concentration 10.0 uM, Protein concentration 2.0 uM
[49] = molecular target: Bromodomain adjacent to zinc finger domain protein 2A (Homo sapiens) (UniProt Q9UIF9); settings: Compound concentration 10.0 uM, Protein concentration 2.0 uM
[50] = molecular target: Transcription initiation factor TFIID subunit 1-like (Homo sapiens) (UniProt Q8IZX4); settings: Compound concentration 10.0 uM, Protein concentration 2.0 uM; remark: listed apart in the source
[51] = Compound concentration 100.0 uM

Q: `O=C(/C=C/N1C[C@H]2C[C@@H]1CN2c1ccccn1)c1ccccc1O` was tested. Which ΔTm [1] did it give?
A: 0.96 °C

Q: And the ΔTm [2]?
A: 0.71 °C and -0.1 °C

Q: What about the ΔTm [3] of the same compound?
A: 0.24 °C

Q: What about the ΔTm [4] of the same compound?
A: -0.23 °C and 0.38 °C

Q: What about the ΔTm [5] of the same compound?
A: 0.43 °C

Q: What about the ΔTm [6] of the same compound?
A: 0.39 °C

Q: What about the ΔTm [7] of the same compound?
A: 0.77 °C

Q: And the ΔTm [8]?
A: -0.08 °C

Q: And the ΔTm [9]?
A: 1.22 °C and 0.26 °C

Q: What about the ΔTm [10] of the same compound?
A: 0.14 °C

Q: What about the ΔTm [11] of the same compound?
A: 0.85 °C

Q: What about the ΔTm [12] of the same compound?
A: 10 °C

Q: What about the ΔTm [13] of the same compound?
A: 0.19 °C

Q: What about the ΔTm [14] of the same compound?
A: 1.62 °C

Q: And the ΔTm [15]?
A: 0.75 °C

Q: What about the ΔTm [16] of the same compound?
A: 1.04 °C

Q: And the ΔTm [17]?
A: 1.15 °C

Q: And the ΔTm ([18]; Compound concentration 10.0 uM)?
A: 1.13 °C

Q: What about the ΔTm [18, 51] of the same compound?
A: 4.63 °C

Q: And the ΔTm [19]?
A: 0.79 °C

Q: And the ΔTm [20]?
A: 0.36 °C and -0.62 °C

Q: And the ΔTm [21]?
A: -0.01 °C

Q: What about the ΔTm [22] of the same compound?
A: 0.61 °C

Q: And the ΔTm [23]?
A: 0.2 °C and 0.15 °C

Q: What about the ΔTm [24] of the same compound?
A: 5.23 °C

Q: What about the ΔTm [25] of the same compound?
A: -0.35 °C

Q: And the ΔTm [26]?
A: 0.5 °C

Q: And the ΔTm [27]?
A: 1.25 °C

Q: And the ΔTm [28]?
A: 0.54 °C

Q: And the ΔTm [29]?
A: 0.24 °C

Q: What about the ΔTm [30] of the same compound?
A: 0.92 °C

Q: What about the ΔTm [31] of the same compound?
A: 1.02 °C

Q: What about the ΔTm [32] of the same compound?
A: 0.83 °C

Q: What about the ΔTm ([33]; Compound concentration 10.0 uM) of the same compound?
A: 0.98 °C

Q: And the ΔTm [33, 51]?
A: 2.54 °C

Q: What about the ΔTm [34] of the same compound?
A: 0.59 °C and -0.66 °C

Q: And the ΔTm [35]?
A: 0.52 °C

Q: And the ΔTm [36]?
A: 0.56 °C

Q: What about the ΔTm [37] of the same compound?
A: 0.4 °C

Q: What about the ΔTm [38] of the same compound?
A: 0.05 °C

Q: And the ΔTm [39]?
A: 0 °C

Q: What about the ΔTm [40] of the same compound?
A: 0.34 °C

Q: What about the ΔTm [41] of the same compound?
A: 6.62 °C and 8.52 °C

Q: What about the ΔTm [42] of the same compound?
A: 0.65 °C

Q: And the ΔTm [43]?
A: -0.08 °C

Q: What about the ΔTm [44] of the same compound?
A: 0.84 °C

Q: And the ΔTm [45]?
A: 0.77 °C

Q: What about the ΔTm [46] of the same compound?
A: 5.19 °C and 7.18 °C (2×)

Q: And the ΔTm [47]?
A: 1.12 °C

Q: What about the ΔTm [48] of the same compound?
A: 1.62 °C

Q: And the ΔTm [49]?
A: 0.02 °C

Q: And the ΔTm [50]?
A: 1.1 °C
